Columns and labels:
Format in all cases: cell-based
[1] = tested on: Klebsiella pneumonia isolates; assay: Susceptibility of Klebsiella pneumonia urine isolates to antibiotics by the classical method VITEK2; conditions: Klebsiella pneumonia isolates from urine of UTI patients, 220 isolates studied
Source text: (§1) The present inventors studied 1005 different bacterial isolates derived directly from urine samples of UTIs patients, as follows:
(§2) These isolates were identified at a species level as well as their known susceptibility to most common used antibiotics, using the classical methods MALDI-TOF and VITEK2, respectively.
FIGS. 7A-7B present the average second derivative IR spectra of Klebsiella pneumonia, in the 900-1800 cm^−1 region grouped as sensitive of resistant to: Amoxicillin (panel a), Ceftazidime (panel c), Ceftriaxone (panel e) and Cefuroxime (panel g). The ROC curves of the classification of these antibiotics are respectively presented in panels (b), (d), (f) and (h). […] The performances of the RF classifier for the classification between Klebsiella pneumonia isolates sensitive and resistant to the tested antibiotics are summarized in Table 4 similar to E. coli (Table 3).

[2] = tested on: E. coli isolates; assay: Susceptibility of E. coli urine isolates to antibiotics by the classical method VITEK2; design: key to Bacterial susceptibility category label: sensitive (S); resistant (R); conditions: for R (number of isolates resistant to the antibiotic) / S (number of isolates sensitive to the antibiotic): E. coli isolates from urine of UTI patients, 567 isolates studied
Source text: as §1, §2
The samples where then processed for spectrometric measurements, by purifying the infecting bacteria directly from the urine as described herein above. A subset consisting of ten E. coli isolates was randomly selected, as detailed in table 1.

[3] = tested on: Pseudomonas aeruginosa isolates; assay: Susceptibility of Pseudomonas aeruginosa urine isolates to antibiotics by the classical method VITEK2; conditions: Pseudomonas aeruginosa isolates from urine of UTI patients, 121 isolates studied
Source text: as §1
These isolates were identified at a species level as well as their known susceptibility to most common used antibiotics, using the classical methods MALDI-TOF and VITEK2, respectively. […]

Compound	R (number of isolates resistant to the antibiotic) [1]	S (number of isolates sensitive to the antibiotic) [1]	R (number of isolates resistant to the antibiotic) [2]	S (number of isolates sensitive to the antibiotic) [2]	R (number of isolates resistant to the antibiotic) [3]	S (number of isolates sensitive to the antibiotic) [3]	Bacterial susceptibility category label ([2]; E. coli isolate 306358)	Bacterial susceptibility category label ([2]; E. coli isolate 306365)	Bacterial susceptibility category label ([2]; E. coli isolate 306366)	Bacterial susceptibility category label ([2]; E. coli isolate 306382)	Bacterial susceptibility category label ([2]; E. coli isolate 307201)	Bacterial susceptibility category label ([2]; E. coli isolate 307212)	Bacterial susceptibility category label ([2]; E. coli isolate 307234)	Bacterial susceptibility category label ([2]; E. coli isolate 307368)	Bacterial susceptibility category label ([2]; E. coli isolate 307395)	Bacterial susceptibility category label ([2]; E. coli isolate 307402)
CC1=C(C(=O)O)N2C(=O)[C@@H](NC(=O)[C@H](N)c3ccccc3)[C@H]2SC1 [Cephalexin]	90	121	167	372	–	–	–	–	–	–	–	–	–	–	–	–
C[C@@H](O)[C@H]1C(=O)N2C(C(=O)O)=C(SCCN=CN)C[C@H]12 [Imipenem]	–	–	–	–	18	72	–	–	–	–	–	–	–	–	–	–
Piperacill-Tazobactam	41	179	58	506	10	76	–	–	–	–	–	–	–	–	–	–
C[C@H]1COc2c(N3CCN(C)CC3)c(F)cc3c(=O)c(C(=O)O)cn1c23 [Levofloxacin]	–	–	–	–	33	63	–	–	–	–	–	–	–	–	–	–
NC[C@H]1O[C@H](O[C@H]2[C@H](O)[C@@H](O[C@H]3O[C@H](CO)[C@@H](O)[C@H](N)[C@H]3O)[C@H](N)C[C@@H]2N)[C@H](N)C[C@@H]1O [Tobramycin]	–	–	–	–	15	79	–	–	–	–	–	–	–	–	–	–
CO/N=C(\C(=O)N[C@@H]1C(=O)N2C(C(=O)OC(C)OC(C)=O)=C(COC(N)=O)CS[C@H]12)c1ccco1 (stereo partly drawn) [Cefuroxime-Axetil]	95	112	190	351	–	–	–	–	–	–	–	–	–	–	–	–
O=C1CN(/N=C/c2ccc([N+](=O)[O-])o2)C(=O)N1 [Nitrofurantoin]	150	62	47	502	–	–	–	–	–	–	–	–	–	–	–	–
CC(C)(O/N=C(\C(=O)N[C@@H]1C(=O)N2C(C(=O)[O-])=C(C[n+]3ccccc3)CS[C@H]12)c1csc(N)n1)C(=O)O [Ceftazidime]	91	129	159	408	19	78	–	–	–	–	–	–	–	–	–	–
CCN1CCN(C(=O)N[C@@H](C(=O)N[C@@H]2C(=O)N3[C@@H]2SC(C)(C)[C@@H]3C(=O)O)c2ccccc2)C(=O)C1=O [Piperacillin]	–	–	–	–	23	59	–	–	–	–	–	–	–	–	–	–
Gentamicin	41	179	68	498	17	80	–	–	–	–	–	–	–	–	–	–
CC1(C)S[C@@H]2[C@H](NC(=O)[C@H](N)c3ccc(O)cc3)C(=O)N2[C@H]1C(=O)O [Amoxicillin]	61	159	170	397	–	–	–	–	–	–	–	–	–	–	–	–
CC1(C)S[C@@H]2[C@H](NC(=O)[C@H](N)c3ccccc3)C(=O)N2[C@H]1C(=O)O [Ampicillin]	–	–	384	181	–	–	S	R	R	S	R	S	R	S	R	R
Sulfamethoxa-Trimeth	92	126	194	371	–	–	S	R	S	S	R	R	R	S	R	S
CO/N=C(\C(=O)N[C@@H]1C(=O)N2C(C(=O)O)=C(CSc3nc(=O)c(=O)[nH]n3C)CS[C@H]12)c1csc(N)n1 [Ceftriaxone]	87	133	160	407	–	–	S	S	R	S	S	S	S	S	S	S
C[C@@H](O)[C@H]1C(=O)N2C(C(=O)O)=C(S[C@@H]3CN[C@H](C(=O)N(C)C)C3)[C@H](C)[C@H]12 [Meropenem]	–	–	–	–	20	77	–	–	–	–	–	–	–	–	–	–
Amoxicillin ClavulA	–	–	–	–	–	–	S	–	–	S	S	S	S	S	S	–
CO/N=C(\C(=O)N[C@@H]1C(=O)N2C(C(=O)O)=C(COC(N)=O)CS[C@H]12)c1ccco1 [Cefuroxime]	99	121	196	371	–	–	S	S	R	S	S	S	S	S	S	S

Reference: patent publication US20230386662A1, “RAPID AND DIRECT IDENTIFICATION AND DETERMINATION OF URINE BACTERIAL SUSCEPTIBILITY TO ANTIBIOTICS” (B. G. NEGEV TECHNOLOGIES AND APPLICATIONS LTD., AT …, priority 2020, published 2023)
